Experimental data as given in article doi:10.1101/2025.04.16.649181, “Design of peptide-based PAC1 antagonists combining molecular dynamics simulations and a biologically relevant cell-based assay” (bioRxiv, 2025).
No end group written: not given here.

T1: PAC1 (endogenous, mainly PAC1null, SH-SY5Y) (Homo sapiens, UniProt P41586)
T1 construct: Neuroblastoma SH-SY5Y cells endogenously xpressing hPAC1 and engineered to express CBS; endogenous in cells
T1 sequence (P41586 21-468): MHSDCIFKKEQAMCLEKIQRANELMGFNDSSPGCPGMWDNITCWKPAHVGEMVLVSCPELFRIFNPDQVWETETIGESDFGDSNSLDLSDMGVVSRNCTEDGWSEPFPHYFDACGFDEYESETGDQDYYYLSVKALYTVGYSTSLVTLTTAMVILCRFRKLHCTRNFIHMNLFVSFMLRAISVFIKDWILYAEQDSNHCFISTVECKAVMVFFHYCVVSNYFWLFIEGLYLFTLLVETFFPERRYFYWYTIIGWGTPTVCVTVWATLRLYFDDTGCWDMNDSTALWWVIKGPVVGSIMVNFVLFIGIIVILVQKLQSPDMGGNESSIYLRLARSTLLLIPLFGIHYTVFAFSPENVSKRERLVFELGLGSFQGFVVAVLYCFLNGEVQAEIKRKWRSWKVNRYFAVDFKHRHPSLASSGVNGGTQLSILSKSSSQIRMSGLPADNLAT


Key:
[1] = target: T1, PAC1 (endogenous, mainly PAC1null, SH-SY5Y); experiment: CBS assay, antagonism of P38-induced cAMP in SY5Y_CBS cells; type: cell-based; conditions: 0.2 nM P38 (EC80), SY5Y_CBS, mean ± SEM, three independent experiments, Figure 11B; read-out: IC50 of P6-38 C-terminal mutants in CBS assay
Text: (§1) A single clone of the SH-SY5Y cell line stably expressing a cAMP biosensor (SY5Y_CBS) was generated as previously described for HEK293_CBS and NS-1_CBS cells, using the retroviral vector pLHCX containing the cAMP biosensor and a hygromycin resistance gene. A HEK293_CBS_hPAC1 cell clone was generated by transducing HEK293_CBS cells with the lentiviral vector pLX304 (GeneCopoeia, Rockville, MD) encoding the human PAC1hop (PAC1; GenBank accession no. BC143679) and a blasticidin resistance gene . Following transduction, cells were selected with the appropriate antibiotics (hygromycin or blasticidin) for 2 weeks. Single-cell clones were subsequently isolated by limiting dilution and assessed for PACAP-induced cAMP production using concentration-response assays.
(§2) The cyclic AMP biosensor (CBS) assay was performed using Gibco CO2-independent medium (ThermoFisher, catalog #18045-088). HEK293_CBS_hPAC1 or SY5Y_CBS cells were seeded in 96-well black/clear-bottom plates (MidSci, Fenton, MO) at a density of 6,000 cells per well and incubated overnight. The following day, the medium in each well was aspirated and replaced with fresh medium containing 1.5 mg/mL D-luciferin potassium salt substrate (Gold Biotechnology, St. Louis, MO) and 500 μM isobutyl-1-methylxanthine (IBMX), followed by incubation at 37 °C for 1 hour. Cells were then pre-treated with antagonists for 10 minutes before the addition of agonists (PACAP or forskolin). Plates were incubated at 37 °C for 1 hour, then brought to room temperature and equilibrated for 30 minutes. Luminescence was measured using a GloMax plate reader (Promega, Madison, WI).
(§3) GraphPad Prism ver. 9.0 or 10.0 (GraphPad Software Inc, Boston, MA) was used for data analysis. Concentration response curves were created using a four parameter logistic regression model. EC80 and IC50 parameters were obtained using non-linear regression curve fitting tools. EC80 was calculated as the effective concentration of the agonist required to produce 80% of the maximal response. IC50 was calculated as the concentration of the antagonist that produced 50% of the response induced by an agonist (either PACAP or forskolin) in the absence of the antagonist. Seven or eight different concentrations and three technical replicates per concentration were used for curve fitting. All data are presented as mean ± standard error of the mean (SEM).

[2] = target: T1, PAC1 (endogenous, mainly PAC1null, SH-SY5Y); experiment: Direct cAMP ELISA, antagonism of P38 in SY5Y_CBS cells; type: cell-based
Method: Direct cAMP determinations were made using the DetectX® Direct Cyclic AMP Enzyme Immunoassay Kit (Arbor Assays, Ann Arbor, MI). SY5Y_CBS cells (200,000 cells per well) or HEK293_CBS cells (10,000 cells per well) were seeded into 96-well plates one day prior to the assay. These cell densities were optimized to ensure agonist responses fell within the linear range of the cAMP standard curve (0.16-10 pmol/mL cAMP). On the day of the assay, the medium was removed and replaced with fresh medium containing 500 μM IBMX. After a 20-minute incubation at 37 °C, antagonists were added and incubated for 10 minutes at 37 °C, followed by the addition of agonists for 30 minutes at 37 °C. Following the final incubation, the medium was aspirated, and cells were lysed with 200 μL of lysis buffer (provided in the kit) for 10 minutes at room temperature. Samples were then snap-frozen and stored at −80 °C overnight and thawed the next day to ensure complete cell lysis. The assay was completed by sequentially adding the cAMP peroxidase conjugate, anti-cAMP sheep antibody, substrate, and stop solution, according to the manufacturer’s instructions. Optical density was measured at 450 nm using a microplate spectrophotometer (Molecular Devices, San Jose, CA). Standard curves and data analysis were performed using GraphPad Prism with a sigmoidal four-parameter nonlinear regression model. Experiments conducted on different days with independently plated and assayed cells were considered biological replicates. Each experiment included three technical replicates.
as §3

human PAC1hop (hPAC1) = experiment: cAMP biosensor (CBS) assay, agonist responses in HEK293_CBS_hPAC1; type: cell-based; conditions: HEK293_CBS_hPAC1, IBMX pretreated, luminescence
Text: as §1, §2
GraphPad Prism ver. 9.0 or 10.0 (GraphPad Software Inc, Boston, MA) was used for data analysis. Concentration response curves were created using a four parameter logistic regression model. EC80 and IC50 parameters were obtained using non-linear regression curve fitting tools. EC80 was calculated as the effective concentration of the agonist required to produce 80% of the maximal response. […]

[3] = target: PAC1 endogenously expressed in SH-SY5Y cells (human (endogenous in SH-SY5Y)) (UniProt P41586)
[4] = 1 nM P38, average of two independent experiments, read-out: IC50 Average in ELISA assay
[5] = 1 nM P38, range of two independent experiments, read-out: IC50 Range in ELISA assay

| Molecule | IC50 [1] [nM] | IC50 [2, 4] [nM] | IC50 [2, 5] [nM] | EC80 of cAMP elevation (CBS assay) in SY5Y CBS cells [3] [nM] | also measured |
| --- | --- | --- | --- | --- | --- |
| FTDSYSRYRKQMAVKKYLAAVLGK-NH2 [P6-29] | > 500 | 1250 | 350 to 2150 |  |  |
| FTDSYSRYRKQMAVKKYLAAVLGKR-NH2 [P6-30] | 84 ± 26 | 175 | 52 to 297 |  |  |
| P27: PACAP 1-27, endogenous PAC1 agonist (HSDGIFTDSYSRYRKQMAVKKYLAAVL; ends and bridges not checked) |  |  |  |  | agonist response (cAMP) (human PAC1hop (hPAC1)): highly responsive to P38 and P27 with similar potency and efficacy |
| PACAP(6-38) (peptide) |  |  |  |  | IC50 of inhibition of P27-induced cAMP elevation (CBS assay) in SY5Y CBS cells; pair that is blocked: m2 + m18 [3]: 20 nM; IC50 of inhibition of P38-induced cAMP elevation (CBS assay) in SY5Y CBS cells; pair that is blocked: m1 + m18 [3]: 100 nM |
| pituitary adenylate cyclase-activating polypeptide (PACAP) 1-27 (from UniProt P18509 132-158) |  |  |  | 0.2 |  |
| HSDAVFTDNYTRLRKQMAVKKYLNSILN [vasoactive intestinal peptide] |  |  |  | 20 |  |
